Experiments:
HepG2 [1] = experiment: Cytotoxicity against human HepG2 cells assessed as cell growth inhibition measured after 48 hrs by MTT assay; type: functional, cell-based; conditions: HepG2, 48 h
A549 [2] = experiment: Cytotoxicity against human A549 cells assessed as cell growth inhibition measured after 48 hrs by MTT assay; type: functional, cell-based; conditions: A549, 48 h
MDA-MB-231 = experiment: Cytotoxicity against human MDA-MB-231 cells assessed as cell growth inhibition; type: functional, cell-based
HeLa = experiment: Cytotoxicity against human HeLa cells assessed as cell growth inhibition; type: functional, cell-based
HepG2 [3] = experiment: Cytotoxicity against human HepG2 cells assessed as cell growth inhibition; type: functional, cell-based
A549 [4] = experiment: Cytotoxicity against human A549 cells assessed as cell growth inhibition; type: functional, cell-based
MGC-803 [5] = experiment: Cytotoxicity against human MGC-803 cells assessed as cell growth inhibition; type: functional, cell-based
MGC-803 [6] = experiment: Antitumor activity against human MGC-803 cells xenografted in mouse assessed as inhibition of tumor growth at 50 mg/kg, po administered relative to control; type: functional; conditions: read-out: TGI
PANC-1 = experiment: Cytotoxicity against human PANC-1 cells assessed as cell growth inhibition measured after 72 hrs XTT assay; type: functional, cell-based; conditions: PANC-1, 72 h
PC-3 = experiment: Cytotoxicity against human PC-3 cells assessed as cell growth inhibition measured after 72 hrs XTT assay; type: functional, cell-based; conditions: PC-3, 72 h
[7] = Phototoxicity against rat AY-27 cells assessed as cell growth inhibition incubated for 2 hrs followed by diode laser illumination in presence of HAL by MTT assay relative to control; type: functional; set-up: scale not given: the % may be the effect or the level left
MCF7 = experiment: Cytotoxicity against human MCF7 cells assessed as cell growth inhibition by MTT assay; type: functional, cell-based
Estrogen receptor = molecular target: T1, Estrogen receptor (Homo sapiens, UniProt P03372); experiment: Inhibition of human recombinant ERalpha expressed in baculovirus expression system measured after 20 mins by fluorescent polarisation Assay
T1 sequence (P03372 whole entry): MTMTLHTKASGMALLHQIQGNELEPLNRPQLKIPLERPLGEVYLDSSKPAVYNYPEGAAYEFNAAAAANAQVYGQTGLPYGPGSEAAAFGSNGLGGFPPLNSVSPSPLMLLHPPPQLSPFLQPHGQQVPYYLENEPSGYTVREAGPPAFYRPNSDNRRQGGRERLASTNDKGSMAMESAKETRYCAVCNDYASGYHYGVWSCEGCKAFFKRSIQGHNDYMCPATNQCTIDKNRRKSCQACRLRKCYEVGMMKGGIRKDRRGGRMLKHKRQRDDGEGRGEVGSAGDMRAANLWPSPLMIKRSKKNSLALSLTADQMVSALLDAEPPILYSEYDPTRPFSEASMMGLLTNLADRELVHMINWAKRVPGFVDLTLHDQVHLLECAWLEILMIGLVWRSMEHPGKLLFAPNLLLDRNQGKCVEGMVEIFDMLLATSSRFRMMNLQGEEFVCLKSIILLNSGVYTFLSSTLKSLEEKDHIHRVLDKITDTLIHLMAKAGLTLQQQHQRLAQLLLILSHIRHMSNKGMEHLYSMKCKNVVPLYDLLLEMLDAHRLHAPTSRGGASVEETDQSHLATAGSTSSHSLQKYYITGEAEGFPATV

Estrogen receptor beta = Estrogen receptor beta (Homo sapiens, UniProt Q92731); experiment: Inhibition of human recombinant ERbeta expressed in baculovirus expression system measured after 20 mins by fluorescent polarisation Assay
Estrogen receptor beta, sequence (Q92731 whole entry): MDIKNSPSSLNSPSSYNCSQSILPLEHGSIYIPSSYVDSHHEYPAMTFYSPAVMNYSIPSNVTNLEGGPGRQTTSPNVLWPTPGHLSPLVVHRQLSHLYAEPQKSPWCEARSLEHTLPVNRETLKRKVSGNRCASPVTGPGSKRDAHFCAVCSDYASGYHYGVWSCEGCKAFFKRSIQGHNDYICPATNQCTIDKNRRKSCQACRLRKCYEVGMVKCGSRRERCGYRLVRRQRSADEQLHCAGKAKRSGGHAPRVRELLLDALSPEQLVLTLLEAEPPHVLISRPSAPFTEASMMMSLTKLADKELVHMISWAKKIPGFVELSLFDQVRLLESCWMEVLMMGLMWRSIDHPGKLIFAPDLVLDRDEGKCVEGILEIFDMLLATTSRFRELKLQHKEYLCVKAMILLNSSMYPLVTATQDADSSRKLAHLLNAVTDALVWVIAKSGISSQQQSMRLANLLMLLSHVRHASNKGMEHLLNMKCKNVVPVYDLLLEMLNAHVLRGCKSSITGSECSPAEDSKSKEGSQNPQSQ

MDA-MB-468 = experiment: Phototoxicity against human MDA-MB-468 cells assessed as cell growth inhibition incubated for 24 hrs followed by LED illumination by MTT assay; type: functional, cell-based; conditions: MDA-MB-468, light or radiation study

| Compound | IC50 (HepG2 [1]) | IC50 (A549 [2]) | IC50 (MDA-MB-231) | IC50 (HeLa) | IC50 (A549 [4]) | further results |
| --- | --- | --- | --- | --- | --- | --- |
| COc1ccc(/C=C\c2cc(OC)c(OC)c(OC)c2)cc1OC(=O)C1CC(C)(C)N(O)C1(C)C (stereo not drawn) | 1830 nM | 42 nM | – | – | – | – |
| COc1ccc(/C=C\c2cc(OC)c(OC)c(OC)c2)cc1OC(=O)Cn1cc(F)c(=O)[nH]c1=O | – | – | 400 nM | 31 nM | < 0.3 nM | IC50 (HepG2 [3]): 22.8 nM; IC50 (MGC-803 [5]): < 0.3 nM; inhibition in vivo at 50 mg/kg (MGC-803 [6]): 75% |
| COc1ccc(/C=C\c2cc(OC)c(OC)c(OC)c2)cc1OC(=O)CCn1cc(F)c(=O)[nH]c1=O | – | – | 80600 nM | 30 nM | < 0.3 nM | IC50 (HepG2 [3]): 7330 nM; IC50 (MGC-803 [5]): < 0.3 nM |
| CC[C@H](C)[C@H](NC(=O)[C@@H](N)CC(C)C)C(=O)N[C@@H](Cc1ccc(O)cc1)C(=O)N1CCC[C@H]1C(=O)N[C@@H](CCCNC(=N)N)C(=O)N[C@@H](CCCNC(=N)N)C(=O)NCCCCCC(NC(=O)[C@@H](CCCNC(=N)N)NC(=O)[C@@H](CCCNC(=N)N)NC(=O)[C@@H]1CCCN1C(=O)[C@H](Cc1ccc(O)cc1)NC(=O)[C@@H](NC(=O)[C@@H](N)CC(C)C)[C@@H](C)CC)C(=O)NC(CCCCNC(=O)C(CCCCNC(=O)[C@H](CCCNC(=N)N)NC(=O)[C@H](CCCNC(=N)N)NC(=O)[C@@H]1CCCN1C(=O)[C@H](Cc1ccc(O)cc1)NC(=O)[C@@H](NC(=O)[C@@H](N)CC(C)C)[C@@H](C)CC)NC(=O)[C@H](CCCNC(=N)N)NC(=O)[C@H](CCCNC(=N)N)NC(=O)[C@@H]1CCCN1C(=O)[C@H](Cc1ccc(O)cc1)NC(=O)[C@@H](NC(=O)[C@@H](N)CC(C)C)[C@@H](C)CC)C(=O)NCCC(=O)NC(CCCCNC(=O)CCOCCOCCNC(=O)CCCCC(=O)Oc1cc(/C=C\c2cc(OC)c(OC)c(OC)c2)ccc1OC)C(N)=O (stereo partly drawn) | – | – | – | – | – | IC50 (PANC-1): 500 nM; IC50 (PC-3): 850 nM |
| COc1ccc(/C=C\c2cc(OC)c(OC)c(OC)c2)cc1OC(=O)C1=CC(C)(C)N(O)C1(C)C | 3270 nM | 160 nM | – | – | – | – |
| COc1ccc(/C=C\c2cc(OC)c(OC)c(OC)c2)cc1OC(=O)C1CC(C)(C)N(O)C(C)(C)C1 | 11200 nM | 170 nM | – | – | – | – |
| CCN(CC)c1ccc2c(-c3ccccc3C(=O)OCC3CCN(/C=C/C(=O)Oc4cc(/C=C\c5cc(OC)c(OC)c(OC)c5)ccc4OC)CC3)c3ccc(=[N+](CC)CC)cc-3oc2c1.[Cl-] | – | – | – | – | – | Activity [7]: 100% |
| COc1ccc(/C=C\c2cc(OC)c(OC)c(OC)c2)cc1OC(=O)N(C)CCOc1ccc(C(=C2CCC(C)CC2)c2ccc(O)cc2)cc1 (stereo not drawn) | – | – | – | – | – | IC50 (MCF7): 5.7 nM; IC50 (Estrogen receptor): 15 nM; IC50 (Estrogen receptor beta): 115 nM |
| COc1ccc(/C=C\c2cc(OC)c(OC)c(OC)c2)cc1OC(=O)C1=CC(C)(C)N(O)C(C)(C)C1 | 3580 nM | 150 nM | – | – | – | – |
| COc1ccc(/C=C\c2cc(OC)c(OC)c(OC)c2)cc1O [COMBRETASTATIN A4] | 2390 nM | 35 nM | 3.3 nM | 400 nM | 2.54 nM | IC50 (HepG2 [3]): 12.8 nM; IC50 (MDA-MB-468): 16 nM; IC50 (MGC-803 [5]): 20.6 nM |
| O=c1[nH]cc(F)c(=O)[nH]1 [FLUOROURACIL] | – | – | 97000 nM | 113 nM | 34900 nM | – |
| CCc1c2c(nc3ccc(OC(=O)N4CCC(N5CCCCC5)CC4)cc13)-c1cc3c(c(=O)n1C2)COC(=O)[C@]3(O)CC [IRINOTECAN] | 34100 nM | 2000 nM | – | – | – | – |

From ChEMBL document CHEMBL5214931, “Recent advances in combretastatin A-4 codrugs for cancer therapy” (Eur J Med Chem, 2022)
